Legend:
[1] = test system: EMT-6 breast cancer; assay: Inhibition of BABLc mice-transplanted tumor of EMT-6 breast cancer; assay type: in vivo; conditions: 9 days
Experimental: (1) Animal BABLc mice, ♀, body weight 17˜21 g
Cell Lines EMT-6 cell lines were mice breast cancer cells, and grew adhering to the wall in RPMI-1640 complete media containing 10% calf serum, 1 mmol/L glutamine, 100 U·ml^−1 penicillin and 100 μg·ml^−1 streptomycin, and were cultured in an incubator at 37° C. under 5% CO2, followed by changing the medium and subculturing every two or three days.
Viable cells were counted by trypan blue staining. Cell suspension was subcutaneously inoculated at the left forelimb armpit of mice at 0.2 ml/animal (containing about 1×10^7 cells), and after tumor grew to 1 cm×1 cm×1 cm, mice were used in experiment. Mice tumors were aseptically stripped, and washed with Hank's solution thrice, to remove blood, fat and necrotic tissues. Tumors were cut to broken pieces of 1 mm×1 mm×1 mm, and washed with Hank's solution twice, to which physiological saline was added at a ratio of (1 g:3 ml), and then ground in a glass homogenizer and filtered by 80-100 mesh sieve to make a suspension of single cell. Viable cells were counted by trypan blue staining.
On the second day after inoculation, a dosage of 0.2 ml·10 g^−1 was administrated to each group by intraperitoneal injection (ip) for successive 9 days, once a day. When the tumor weight in negative group was more than 1.0 g(tumor volume being about 0.5 cm^3), the experiment was stopped, and mice were sacrificed by cervical vertebrae removal and weighed. Tumors were stripped to calculate inhibitory rate.

[2] = test system: chemical liver injury (rat alcoholic fatty liver model); assay: Protective effect on chemical liver injury (rat alcoholic fatty liver model); assay type: in vivo, rats; conditions: 30 days; for GSH / SOD: liver homogenate; for ALT / AST: serum
Experimental: Experimental grouping and dose design: Female SD rats were randomly divided to groups, 10 rats for each group, […], 70 mg·kg^−1, 85 mg·kg^−1, 100 mg·kg^−1, 120 mg·kg^−1, 140 mg·kg^−1, 160 mg·kg^−1, 180 mg·kg^−1, […], together with a negative control group and 50% ethanol model control group. Liver injury model was induced by ethanol (analytical pure).
Determination of ALT, AST, TG in serum of rats; Determination of SOD, MDA, reduced glutathione (GSH) in liver homogenate.
Statistics of experimental data: Statistical analysis of experimental data was performed using software package of SPSS 19.0 for windows.

## O=C(/C=C/c1ccc(O)c(O)c1)O[C@@H]1C[C@](O)(C(=O)O)C[C@@H](O)[C@H]1O [Commercially available chlorogenic acid, chlorogenic acid, reference compound]
[1]; 1 mg·kg^−1 ip once a day
  Inhibitory rate: 3.13%
  Tumor weight: 1.299 ± 0.253 g
[1]; 5 mg·kg^−1 ip once a day
  Inhibitory rate: 4.18%
  Tumor weight: 1.285 ± 0.324 g
[1]; 10 mg·kg^−1 ip once a day
  Inhibitory rate: 5.00%
  Tumor weight: 1.274 ± 0.854 g
[1]; 20 mg·kg^−1 ip once a day
  Inhibitory rate: 10.44%
[1]; 30 mg·kg^−1 ip once a day
  Inhibitory rate: 11.63%
[1]; 40 mg·kg^−1 ip once a day
  Inhibitory rate: 16.11%
[1]; 50 mg·kg^−1 ip once a day
  Inhibitory rate: 16.85%
[1]; 60 mg·kg^−1 ip once a day
  Inhibitory rate: 24.76%
  Tumor weight: 1.009 ± 0.123 g
[1]; 70 mg·kg^−1 ip once a day
  Inhibitory rate: 6.49%
  Tumor weight: 1.254 ± 0.514 g
[1]; 80 mg·kg^−1 ip once a day
  Inhibitory rate: 4.62%
  Tumor weight: 1.279 ± 0143 g
[1]; 90 mg·kg^−1 ip once a day
  Inhibitory rate: 3.21%
  Tumor weight: 1.298 ± 0.423 g
[1]; 100 mg·kg^−1 ip once a day
  Inhibitory rate: 2.16%
  Tumor weight: 1.312 ± 0.087 g
[2]; 10 mg·kg^−1 intragastric
  GSH: 12.57 ± 3.84 mg/g
  SOD: 26.15 ± 2.45 nmol/mg
  ALT: 58.67 ± 2.89 U/L
  AST: 194.12 ± 6.32 U/L
[2]; 20 mg·kg^−1 intragastric
  GSH: 13.62 ± 4.87 mg/g
  SOD: 27.24 ± 2.78 nmol/mg
  ALT: 57.41 ± 3.15 U/L
  AST: 193.89 ± 3.84 U/L
[2]; 35 mg·kg^−1 intragastric
  GSH: 14.83 ± 5.47 mg/g
  SOD: 28.05 ± 1.45 nmol/mg
  ALT: 56.84 ± 2.87 U/L
  AST: 192.12 ± 5.12 U/L
[2]; 50 mg·kg^−1 intragastric
  GSH: 15.57 ± 3.16 mg/g
  SOD: 29.14 ± 3.78 nmol/mg
  ALT: 56.88 ± 2.64 U/L
  AST: 190.56 ± 4.28 U/L
[2]; 70 mg·kg^−1 intragastric
  GSH: 16.88 ± 2.78 mg/g
  SOD: 30.55 ± 2.05 nmol/mg
  ALT: 55.14 ± 1.65 U/L
  AST: 190.88 ± 3.65 U/L
[2]; 85 mg·kg^−1 intragastric
  GSH: 17.37 ± 3.87 mg/g
  SOD: 31.04 ± 2.58 nmol/mg
  ALT: 53.24 ± 6.11 U/L
  AST: 198.87 ± 2.78 U/L
[2]; 100 mg·kg^−1 intragastric
  GSH: 18.00 ± 3.21 mg/g
  SOD: 32.54 ± 3.47 nmol/mg
  AST: 187.12 ± 4.57 U/L
[2]; 120 mg·kg^−1 intragastric
  GSH: 18.24 ± 6.48 mg/g
  SOD: 33.65 ± 5.01 nmol/mg
  AST: 184.25 ± 3.49 U/L
[2]; 140 mg·kg^−1 intragastric
  GSH: 18.65 ± 3.48 mg/g
  SOD: 33.29 ± 2.68 nmol/mg
  AST: 182.36 ± 3.87 U/L
[2]; 160 mg·kg^−1 intragastric
  GSH: 17.55 ± 4.87 mg/g
  SOD: 33.12 ± 1.75 nmol/mg
  AST: 180.15 ± 6.48 U/L
[2]; 180 mg·kg^−1 intragastric
  GSH: 17.98 ± 5.94 mg/g
  SOD: 32.87 ± 2.16 nmol/mg
  AST: 179.54 ± 4.16 U/L
[2]; 200 mg·kg^−1 intragastric
  GSH: 16.49 ± 4.21 mg/g
  SOD: 31.11 ± 2.54 nmol/mg
  AST: 185.48 ± 3.94 U/L
[2]; 220 mg·kg^−1 intragastric
  GSH: 15.31 ± 3.46 mg/g
  SOD: 28.15 ± 2.04 nmol/mg
  AST: 188.34 ± 5.87 U/L
